This is an account of results in US20050215490A1, “Polyene polyketides and methods of treating bacterial infections” (Ecopia BioSciences, Inc., priority 2003, published 2005).

Type in all cases: cell-based
For series [1], the system named is Micrococcus luteus (ATCC™ 9341). Briefly: MIC, broth microdilution (NCCLS M7-A5). Conditions: ATCC9341, 18 h. Here is the method: (§1) Antibacterial activity of Compounds 1 and 2 (Table 4) was measured by determining the minimal inhibitory concentration (MIC) necessary to obtain a complete inhibition of bacteria growth in eight indicator strains, namely Staphylococcus aureus (ATCC™ 6538P), Staphylococcus aureus MRS3 (ATCC™ 700699), Staphylococcus epidermidis (ATCC™ 12228), Bacillus subtilis (ATCC™ 23857), Bacillus megaterium (ATCC™ 14581), Enterococcus faecalis VRE-1 (ATCC™ 29212), Enterococcus faecalis VRE-2 (ATCC™ 51299) and Micrococcus luteus (ATCC™ 9341). Indicator strains preparation and MIC determination were performed according to the National Committee for Clinical Laboratory Standards (NCCLS) guideline M7-A5 Methods for Dilution Antimicrobial Susceptibility Tests for Bacteria That Grow Aerobically; Approved Standard-Fifth Edition. (NCCLS document M7-A5, ISBN 1-56238-394-9; NCCLS, 940 West Valley Road, Suite 1400, Wayne, Pa. 19087-1898 USA), the content of which is incorporated herein by reference.
(§2) Compounds 1 and 2 were prepared as 100× stock solution in DMSO, with concentrations ranging from 3.2 mg/ml to 0.00625 mg/ml (a two-fold dilution series over […]). An aliquot of each 100× stock solution was diluted 50-fold in test medium described below to give a set of ten (10) 2× solutions ranging from 64 to 0.125 μg/mL. 50 μl of each of the ten 2× solutions was aliquoted into the corresponding well of a 12-well row, with the final well reserved for medium alone control. Each test was made in duplicate.
(§3) Vancomycin (Sigma™) used as positive control compounds, was prepared as 2× stock solutions in sterile, double-distilled water (ddH2O) ranging from 64 μg/ml to […] (a two-fold dilution series over 10 points). An aliquot of 50 μl corresponding to each concentration (at 2×) was then transferred to 96-well microplates to obtain a series of eleven two-fold dilutions.
(§4) An isolated colony of each of the eight indicator strains was used to inoculate tubes containing 3 ml of test medium. Mueller-Hinton test medium was used for Staphylococcus aureus (ATCC™ 6538P), Staphylococcus aureus MRS3 (ATCC™ 700699), Staphylococcus epidermidis (ATCC™ 12228), Bacillus subtilis (ATCC™ 23857), Bacillus megaterium (ATCC™ 14581) and Micrococcus luteus (ATCC™ 9341) indicator strains, and BHI (Brain-Heart Infusion broth) test medium was used for Enterococcus faecalis VRE-1 (ATCC™ 29212) and Enterococcus faecalis VRE-2 (ATCC™ 51299) indicator strains. Cells were grown overnight at 28° C. with shaking. Inoculum density for each indicator strain was adjusted to OD600=0.1 in 5 ml 0.85% saline, then further diluted 1/100 in appropriate medium. 50 μl of the final dilution (in test medium) of each indicator strain was added to each well of a 12-well row. This brings the final dilution of the test article or control compound in solution to 1×. The final inoculum is approximately 5×10^5 CFU/ml.
(§5) The indicator strains were incubated with 11 concentrations of each of Compounds 1 and 2, Vancomycin (Sigma™) control compound and one media alone control. For MIC determination, assay plates were incubated at 35° C. for 18 hours.
(In general: Dilution methods test growth across graded concentrations, often in twofold steps.)

Series [2] has as its system Bacillus megaterium (ATCC™ 14581). Briefly: MIC, broth microdilution (NCCLS M7-A5). Conditions: Priestia megaterium, ATCC14581, 18 h. As for the experimental part:
as §1, §2, §3, §4, §5

Series [3] has as its system Staphylococcus aureus MRS3 (ATCC™ 700699). Put plainly: MIC, broth microdilution (NCCLS M7-A5). Conditions: ATCC700699, 18 h. As for the experimental part: as §1, §2, §3, §4, §5
Series [4] relates to Enterococcus faecalis VRE-2 (ATCC™ 51299). Put plainly: MIC, broth microdilution (NCCLS M7-A5). The following applies: 18 h. Here is the method: as §1, §2, §3, §4, §5
In series [5] the test system is Staphylococcus epidermidis (ATCC™ 12228). Put plainly: MIC, broth microdilution (NCCLS M7-A5). The following applies: ATCC12228, 18 h. As for the experimental part: as §1, §2, §3, §4, §5
Series [6] deals with Staphylococcus aureus (ATCC™ 6538P). Put plainly: MIC, broth microdilution (NCCLS M7-A5). The following applies: ATCC6538P, 18 h. As for the experimental part: as §1, §2, §3, §4, §5
Series [7] has as its system Enterococcus faecalis VRE-1 (ATCC™ 29212). Put plainly: MIC, broth microdilution (NCCLS M7-A5). Conditions: 18 h. Here is the method:
as §1, §2, §3, §4, §5

The test system of series [8] is Bacillus subtilis (ATCC™ 23857). Briefly: MIC, broth microdilution (NCCLS M7-A5). Conditions: ATCC23857, 18 h. As for the experimental part:
as §1, §2, §3, §4, §5

In series [9] the test system is Staphylococcus aureus NRRL B-313 (ATCC™ 6538P). Briefly: MIC at different pH. Here is the method:
Antibacterial activitiy of Compounds.3, 4, 5, 6 and 7 are accomplished using the same method in a panel of bacterial strains and Vancomycin as positive control.
Antibacterial efficacy of Compounds 1, 2, 3, 4, 5 and 6 on bacterial strain Staphylococcus aureus NRRL B-313 (ATCC™ 6538P) was determined at different pH concentrations.

The next series is described as follows: in vitro. The following applies: sheep. As for the experimental part: A. Toxicity: Acute toxicities were determined using CD-1 female mice (supplied by Charles River Laboratories, Wilmington, Mass.) having a bodyweight of 18-25 g, and about 6 weeks of age. Compounds 1 and 2 at doses ranging from 1 to 70 mg/kg (formulated in 20% propylene glycol/water for a total volume of 10 μL/g of weight) were administered intraperitoneal (i.p.) and intravenous (i.v.) to groups of 5 mice (5 mice per concentration, per mode of administration). Two groups of 3 mice were injected with vehicle only. Mice were observed immediately after injection, within 4 hours and once a day for the subsequent days. Acute toxicity studies of Compound 1 in mice indicated no observable effect and high dose tolerability: 70 mg/kg intraperitoneal and 50 mg/kg intravenous (an MTD of 250 mg/kg was also determined by oral administration). […] In vitro Haemolytic activity results are also shown in Table 7, along with the in vivo toxicity and efficacy of Compound 1.

Where [10] appears, read: S. aureus ATCC 6538P, pH 5.0, read-out: MIC.
Setting [11] is: S. aureus ATCC 6538P, pH 6.0, read-out: MIC.
[12] abbreviates: S. aureus ATCC 6538P, pH 7.0, read-out: MIC.

Converted amounts (≈) assume the structure as drawn. Where two headings read alike, the source gives them in different places.

On to `CN[C@H](CC(C)C)C(=O)N[C@H]1C(=O)N[C@@H](CC(N)=O)C(=O)N[C@H]2C(=O)N[C@H]3C(=O)N[C@H](C(=O)N[C@H](C(=O)O)c4cc(O)cc(O)c4-c4cc3ccc4O)[C@H](O)c3ccc(c(Cl)c3)Oc3cc2cc(c3O[C@@H]2O[C@H](CO)[C@@H](O)[C@H](O)[C@H]2O[C@H]2C[C@](C)(N)[C@H](O)[C@H](C)O2)Oc2ccc(cc2Cl)[C@H]1O` [Vancomycin, reference compound], for which the MIC was 1 µg/mL (≈ 0.69 µM) in [1]; 0.125 µg/mL (≈ 0.0863 µM) in series [2]; 4 µg/mL (≈ 2.76 µM) in series [3]; 8 to 16 µg/mL (≈ 5.52 to 11 µM) in series [4]; 2 µg/mL (≈ 1.38 µM) in series [5]; 2 µg/mL (≈ 1.38 µM) in [6]. Also, the minimum inhibitory concentration (MIC) in series [7] stood at 4 µg/mL (≈ 2.76 µM); in series [8] it was 0.25 µg/mL (≈ 0.173 µM); in series [9] (pH 5), 1 µg/mL (≈ 0.69 µM); in [9] (pH 6) it was 1 µg/mL (≈ 0.69 µM); in series [9] (pH 7), 1 µg/mL (≈ 0.69 µM).
For the compound `C[C@@H]1[C@H](O)[C@@H](C)/C=C/C=C/C=C/C=C/C=C/C=C/C=C/[C@H](O[C@@H]2O[C@H](C)[C@@H](O)[C@H](N)[C@@H]2O)C[C@@H]2O[C@](O)(C[C@@H](O)C[C@@H](O)[C@H](O)CC[C@@H](O)C[C@@H](O)CC(=O)O[C@H]1C)C[C@H](O)[C@H]2C(=O)O` [Amphotericin, reference compound], in “in vitro”, the EC50 came out at 3 µg/mL (≈ 3.25 µM).
With `COC(=O)C1OC(OC(C(C)=CC(C)CCCC=CC(C)CC=CCCCN(C)C(=N)N)C(C)C=CC=CC=CC=CC=C(C)C(=O)NC2=C(OC)CCC2=O)C(O)C(O)C1O` (stereo not shown) [Compound 5, 3,4,5-trihydroxy-6-[1-[11-(2-methoxy-5-oxo-cyclopent-1-enylcarbamoyl)-1-methyldodeca-2,4,6,8,10-pentaenyl]-2,4,10-trimethyl-16-(N-methyl-guanidino)-hexadeca-2,8,12-trienyloxy]-tetrahydropyran-2-carboxylic acid methyl ester], the results for the minimum inhibitory concentration (MIC) in series [9] (setting [10]), in [9] (setting [11]) and in series [9] (setting [12]) were 2 µg/mL (≈ 2.31 µM), 4 µg/mL (≈ 4.62 µM) and 4 µg/mL (≈ 4.62 µM), respectively.
Regarding `COC(=O)C1OC(OC(/C(C)=C/C(C)CCC/C=C/C(C)C/C=C/CCCN(C)C(=N)N)C(C)/C=C/C=C/C=C/C=C/C=C(\C)C(=O)NC2=C(O)CCC2=O)C(O)C(O)C1O` (stereo not shown) [Compound 3, 3,4,5-trihydroxy-6-[1-[11-(2-hydroxy-5-oxocyclopent-1-enylcarbamoyl)-1-methyldodeca-2,4,6,8,10-pentaenyl]-2,4,10-trimethyl-16-(N-methyl-guanidino)-hexadeca-2,8,12-trienyloxy]-tetrahydropyran-2-carboxylic acid methyl ester], the results for the minimal inhibitory concentration (MIC) in [9] (setting [10]), in series [9] (setting [11]) and in series [9] (setting [12]) were 2 µg/mL (≈ 2.35 µM), 4 to 8 µg/mL (≈ 4.7 to 9.4 µM) and 16 µg/mL (≈ 18.8 µM), respectively.
For `COC1=C(NC(=O)/C(C)=C/C=C/C=C/C=C/C=C/C(C)C(OC2OC(C(=O)O)C(O)C(O)C2O)/C(C)=C/C(C)CCC/C=C/C(C)C/C=C/CCCN(C)C(=N)N)C(=O)CC1` (stereo not shown) [Compound 4, 3,4,5-trihydroxy-6-[1-[11-(2-methoxy-5-oxo-cyclopent-1-enylcarbamoyl)-1-methyldodeca-2,4,6,8,10-pentaenyl]-2,4,10-trimethyl-16-(N-methyl-guanidino)-hexadeca-2,8,12-trienyloxy]-tetrahydropyran-2-carboxylic acid], in that order: 2 µg/mL (≈ 2.35 µM), 2 µg/mL (≈ 2.35 µM) and 2 µg/mL (≈ 2.35 µM).
As for `C\C(=C/C=C/C=C/C=C/C=C/C(C)C(OC1OC(C(=O)O)C(O)C(O)C1O)/C(C)=C/C(C)CCC/C=C/C(C)C/C=C/CCCN(C)C(=N)N)C(=O)O` (stereo not shown) [Compound 7, 6-[1-(11-carboxy-1-methyldodeca-2,4,5,8,10-pentaenyl)-2,4,10-trimethyl-16-(N-methylguanidino)-hexadeca-2,8,12-trienyloxy]-3,4,5-trihydroxy-tetrahydropyran-2-carboxylic acid], the minimal inhibitory concentration (MIC) in series [9] (setting [12]) is 32 to 64 µg/mL (≈ 43.1 to 86.3 µM).
For `CC(=O)NC(=N)N(C)CCC/C=C/CC(C)/C=C/CCCC(C)/C=C(\C)C(OC1OC(C(=O)O)C(O)C(O)C1O)C(C)/C=C/C=C/C=C/C=C/C=C(\C)C(=O)NC1=C(O)CCC1=O` (stereo not shown) [Compound 6, 6-{16-(N′-acetyl-N-methylguanidino)-1-[11-(2-hydroxy-5-oxocyclopent-1-enylcarbamoyl)-1-methyldodeca-2,4,6,8,10-pentaenyl]-2,4,10-trimethylhexadeca-2,8,12-trienyloxy}-3,4,5-trihydroxytetrahydropyran-2-carboxylic acid], the MIC in series [9] (setting [10]) was determined as 0.25 µg/mL (≈ 0.284 µM); in series [9] (setting [11]), 0.5 µg/mL (≈ 0.569 µM); in [9] (setting [12]), 2 µg/mL (≈ 2.28 µM).

What is called MIC is the lowest concentration found to suppress growth. As usually defined, the EC50 is the concentration at which the effect is half-maximal. A lower EC50 goes with a more potent agent.
